What all share (assay type): functional
For test [1], the system named is Acinetobacter baumannii. Briefly: Antibacterial activity against clinical isolate Acinetobacter baumannii IC 19/09 expressing blaNDM-1 co-expressing blaOXA-64 assessed as inhibition of bacterial growth measured after 20 hrs by broth microdilution assay. For orientation: Dilution methods test growth across graded concentrations, often in twofold steps.
The subject of test [2] is Escherichia coli. As to the kind of experiment: Antibacterial activity against clinical isolate Escherichia coli K12 J53-ST10 618/15 expressing blaNDM-1 assessed as inhibition of bacterial growth measured after 20 hrs by broth microdilution assay.
Test [3] deals with Klebsiella pneumoniae. Briefly: Antibacterial activity against clinical isolate Klebsiella pneumoniae 62/07 expressing blaVIM-19 co-expressing blaSHV-1/blaCTX-M-14 and blaCMY-4 assessed as inhibition of bacterial growth measured after 20 hrs by broth microdilution assay.
For test [4], the system named is Escherichia coli. As to the kind of experiment: Antibacterial activity against clinical isolate Escherichia coli ST1012/10 expressing blaNDM-1 co-expressing blaTEM-1/blaCTX-M-15/blaOXA-1 and blaOXA-2 assessed as inhibition of bacterial growth measured after 20 hrs by broth microdilution assay.
Test [5] relates to Escherichia coli. As to the kind of experiment: Antibacterial activity against clinical isolate Escherichia coli K12 J53-ST10 684/18 expressing bla-NDM-1 co-expressing bla-CMY-2 and bla-OXA-10 assessed as inhibition of bacterial growth measured after 20 hrs by broth microdilution assay.
The test system of test [6] is Klebsiella pneumoniae. Briefly: Antibacterial activity against clinical isolate Klebsiella pneumoniae 50/11 expressing blaNDM-1 co-expressing blaTEM-1/blaSHV-28/blaTEM-1/blaCTX-M-15 and blaOXA-1 assessed as inhibition of bacterial growth measured after 20 hrs by broth microdilution assay.
Test [7] relates to Klebsiella pneumoniae. Briefly: Antibacterial activity against clinical isolate Klebsiella pneumoniae ST23213/19 expressing blaNDM-1 co-expressing blaOXA-48/blaSHV-11/blaCTX-M-15 and blaOXA-1 assessed as inhibition of bacterial growth measured after 20 hrs by broth microdilution assay.
Test [8] deals with Klebsiella pneumoniae. As to the kind of experiment: Antibacterial activity against clinical isolate Klebsiella pneumoniae ST1493/10 expressing blaNDM-1 co-expressing blaCMY-2like/blaTEM-1/blaCTX-M-15/blaSHV-28/blaOXA-1 and blaOXA-9 assessed as inhibition of bacterial growth measured after 20 hrs by broth microdilution assay.
The test system of test [9] is Klebsiella pneumoniae. As to the kind of experiment: Antibacterial activity against clinical isolate Klebsiella pneumoniae 50/20 expressing blaNDM-5 co-expressing blaTEM-1 and blaSHV-1 assessed as inhibition of bacterial growth measured after 20 hrs by broth microdilution assay.
The subject of test [10] is Escherichia coli. As to the kind of experiment: Antibacterial activity against clinical isolate Escherichia coli K12 J53-ST10 699/15 expressing blaNDM-1 assessed as inhibition of bacterial growth measured after 20 hrs by broth microdilution assay.
In test [11] the test system is Escherichia coli. As to the kind of experiment: Antibacterial activity against clinical isolate Escherichia coli 371/12 expressing blaNDM-7 co-expressing blaCTX-M-15 and blaOXA-1 assessed as inhibition of bacterial growth measured after 20 hrs by broth microdilution assay.
Test [12] relates to Escherichia coli. As to the kind of experiment: Antibacterial activity against clinical isolate Escherichia coli K12 J53-ST10 696/17 expressing blaNDM-1 co-expressing blaCMY-4 assessed as inhibition of bacterial growth measured after 20 hrs by broth microdilution assay.

Drawing on ChEMBL document CHEMBL5365420, “Kinetics, Thermodynamics, and Structural Effects of Quinoline-2-Carboxylates, Zinc-Binding Inhibitors of New Delhi Metallo-β-lactamase-1 Re-sensitizing Multidrug-Resistant Bacteria for Carbapenems” (J Med Chem, 2023), this text covers MIC for 1 compound.

Structures are written as SMILES. Values after ≈ are worked out from the molar mass of the structure shown.

Consider `C[C@@H](O)[C@H]1C(=O)N2C(C(=O)O)=C(S[C@@H]3CN[C@H](C(=O)N(C)C)C3)[C@H](C)[C@H]12` [MEROPENEM], for which the minimum inhibitory concentration (MIC) (as a rule, the smallest concentration in the dilution series that meets the test's criterion for growth inhibition) is above 128 µg/mL in [1]; 32 µg/mL (≈ 83.4 µM) in test [2]; 128 µg/mL (≈ 334 µM) in [3]; 128 µg/mL (≈ 334 µM) in test [4]; 64 µg/mL (≈ 167 µM) in test [5]; 64 µg/mL (≈ 167 µM) in test [6]. Besides, the MIC in test [7] is above 128 µg/mL; in [8], 128 µg/mL (≈ 334 µM); in test [9], 64 µg/mL (≈ 167 µM); in test [10], 32 µg/mL (≈ 83.4 µM); in [11] it was 64 µg/mL (≈ 167 µM); in test [12], 16 µg/mL (≈ 41.7 µM).
